In patent US10231939B2, “Hydroxytyrosol and oleuropein compositions for induction of DNA damage, cell death and LSD1 inhibition” (priority 2012, dated 2019):

Tests used:
Test in all cases: Cell proliferation (Cell Titer-Blue Assay)
Type in all cases: cell-based, human
HL-60 cells = details: for EC50: Homo sapiens
Protocol: Human acute myeloid leukemic HL-60 cells (ATCC No. CCL-240) obtained from the ATCC were maintained in Dulbecco's modified Eagle's medium (DMEM, Gibco®, Invitrogen, Carlsbad, USA) supplemented with 20% fetal bovine serum (FBS, In Vitro Technologies, Victoria, Australia), antibody/antimycotic containing 100 U/mL Penicillin, 100 μg/mL Streptomycin, 0.25 μg/mL Amphotericin B (Invitrogen, Carlsbad, Calif., USA) and 1× GlutaMAX (Gibco, Invitrogen). Cells were cultured in suspension in a humidified atmosphere of 5% (v/v) CO2 at 37° C. and were maintained in exponential growth phase. For maintenance, cells were passaged twice per week and seeded at ratios 1:10. Cell proliferation was determined using the Cell Titer-Blue Assay kit (Promega, Madison, Wis., USA). Cells were seeded at 10,000 cells per well in black flat bottom 96-well plates (Nalge Nunc, Penfield, N.Y., USA) and treated with serial doses of hydroxytyrosol (0-3200 μM) and oleuropein (0-12800 μM) for 24, 48 and 120 hours at 37° C., 5% (v/v) CO2. Following incubation with the test samples, Cell-Titer Blue reagent (20 μl per 100 μL) was added to each well and mixed gently for 5 sec prior to 4 hr incubation at 37° C. in a humidified atmosphere of 5% CO2. Fluorescence intensity (λex=550 nm and λem=615 nm) was determined using a Perkin Elmer Victor3 multilabel microplate counter (PerkinElmer, Waltham, Mass., USA). Data were expressed as % relative cell viability compared to untreated cells after correction of subtracting the media control fluorescence reading.

A431 cells = details: for EC50: Homo sapiens, A-431
Protocol: (§1) Human epidermal squamous carcinoma A431 cells (ATCC No. CRL-1555), human breast adenocarcinoma MCF7 cells (ATCC No. HTB-22) and brain glioblastoma T98G cells (ATCC No. CRL-1690) obtained from the ATCC were grown as monolayers in a Modified Eagle's Medium (a-MEM) supplemented with 2 mmol/L HEPES (pH 7.4; GIBCO-Invitrogen), 10% (v/v) FBS, 2 mmol/L L-glutamine (GIBCO-Invitrogen), and 80 units gentamicin (GIBCO-Invitrogen). Human epithelial lung adenocarcinoma A549 cells (ATCC No. CCL-185), human liver hepatocellular carcinoma and human colorectal carcinoma HT-29 cells (ATCC No. HTB-38) were obtained from the American Type Culture Collection and grown as monolayers in DMEM (Gibco, Invitrogen) supplemented with 10% (v/v) FBS (In Vitro Technologies), antibody/antimycotic containing 100 U/mL Penicillin, 100 μg/mL Streptomycin, 0.25 μg/mL Amphotericin B (Invitrogen, Carlsbad). All adherent cells were maintained in the exponential growth phase in T75 cm^2 vented culture flasks and passaged by 0.05% (v/v) trypsin-EDTA (GIBCO, Invitrogen) before seeding; at 37° C., 5% (v/v) CO2. Cell proliferation was determined using the Cell Titer-Blue Assay kit (Promega, Madison, Wis., USA). Cells were seeded at 10,000 cells per well in black flat bottom 96-well plates (Nalge Nunc, Penfield, N.Y., USA) and treated with serial doses of hydroxytyrosol (0-3200 μM) and oleuropein (0-12800 μM) for 24, 48 and 120 hours at 37° C., 5% (v/v) CO2. Following incubation with the test samples, Cell-Titer Blue reagent (20 μl per 100 μL) was added to each well and mixed gently for 5 sec prior to 4 hr incubation at 37° C. in a humidified atmosphere of 5% CO2. Fluorescence intensity (λex=550 nm and λem=615 nm) was determined using a Perkin Elmer Victor3 multilabel microplate counter (PerkinElmer, Waltham, Mass., USA). Data were expressed as % relative cell viability compared to untreated cells after correction of subtracting the media control fluorescence reading.

A549 cells = details: for EC50: Homo sapiens
Protocol: as §1

HT-29 cells = details: for EC50: Homo sapiens
Protocol: as §1

MCF7 cells = details: for EC50: Homo sapiens
Protocol: as §1

T98G cells = details: for EC50: Homo sapiens
Protocol: as §1

EC50 (HL-60 cells; HL-60, 24 hr)	EC50 (HL-60 cells; HL-60, 48 hr)	EC50 (HL-60 cells; HL-60, 120 hr)	EC50 (A431 cells; A431, 24 hr)	EC50 (A431 cells; A431, 48 hr)	EC50 (A431 cells; A431, 120 hr)	EC50 (A549 cells; A549, 24 hr)	EC50 (A549 cells; A549, 48 hr)	EC50 (A549 cells; A549, 120 hr)	EC50 (HT-29 cells; HT-29, 24 hr)	EC50 (HT-29 cells; HT-29, 48 hr)	EC50 (HT-29 cells; HT-29, 120 hr)	EC50 (MCF7 cells; MCF7, 24 hr)	EC50 (MCF7 cells; MCF7, 48 hr)	EC50 (MCF7 cells; MCF7, 120 hr)	Structure (SMILES)	EC10 (concentration required to reduce the cell viability of the population to 10%) (HL-60 cells; HL-60, 120 hr)	EC10 (concentration required to reduce the cell viability of the population to 10%) (A431 cells; A431, 120 hr)	EC10 (concentration required to reduce the cell viability of the population to 10%) (A549 cells; A549, 120 hr)	EC10 (concentration required to reduce the cell viability of the population to 10%) (HT-29 cells; HT-29, 120 hr)	EC10 (concentration required to reduce the cell viability of the population to 10%) (MCF7 cells; MCF7, 120 hr)	further results
632 µM	100 µM	13 µM	870 µM	920 µM	480 µM	417 µM	220 µM	160 µM	800 µM	230 µM	310 µM	580 µM	900 µM	520 µM	OCCc1ccc(O)c(O)c1 [HT, 4-(2-hydroxyethyl)-1,2-benzenediol]	29 µM	1000 µM	320 µM	380 µM	750 µM	EC10 (concentration required to reduce the cell viability of the population to 10%) (T98G cells; 120 hr): 1120 µM; EC50 (T98G cells; 24 hr): 1340 µM; EC50 (T98G cells; 48 hr): 1750 µM; EC50 (T98G cells; 120 hr): 700 µM
717 µM	900 µM	100 µM	1750 µM	4400 µM	2900 µM	1080 µM	1100 µM	1220 µM	1580 µM	2500 µM	1850 µM	4750 µM	3000 µM	4100 µM	C/C=C1/[C@H](O[C@@H]2O[C@H](CO)[C@@H](O)[C@H](O)[C@H]2O)OC=C(C(=O)OC)[C@H]1CC(=O)OCCc1ccc(O)c(O)c1 [OL, oleuropein]	230 µM	4450 µM	1540 µM	2950 µM	4700 µM	EC10 (concentration required to reduce the cell viability of the population to 10%) (T98G cells; 120 hr): 6220 µM; EC50 (T98G cells; 24 hr): 2770 µM; EC50 (T98G cells; 48 hr): 6100 µM; EC50 (T98G cells; 120 hr): 5500 µM
